According to patent US10570179B2, “Substituted urea depsipeptide analogs as activators of the CLPP endopeptidase” (priority 2016, dated 2020):
Converted amounts (≈) assume the structure as drawn. Like-named read-outs stand apart in the source and are kept apart here. Numbered stars: 1 amine (or outer) side, 2 acyl side, 3 side chain; on linkers, the order of the positions; unused ones are H or OH. Bridge positions count the residues as written; N and C are the ends. Square brackets hold non-standard residues; d marks the D form. Peptide text beside a SMILES is read from it. * marks the point of attachment. Piperazine(2S-CO,4-Me) = CN1CCN[C@H](C(=O)O)C1; Phe(3,5-F2) = N[C@@H](Cc1cc(F)cc(F)c1)C(=O)O; Phe(3-Me) = Cc1cccc(C[C@H](N)C(=O)O)c1; NH(4-Cl-2-F-phenyl) = Fc1cc(Cl)ccc1N*; Pro(4R-Me) = C[C@H]1CN[C@H](C(=O)O)C1; Propanoyl(3-NMe2) = CN(C)CCC(=O)*; Hyp = O=C(O)[C@@H]1C[C@@H](O)CN1; aThr = C[C@H](O)[C@H](N)C(=O)O; Pip = O=C(O)[C@@H]1CCCCN1; CO = O=C([*:1])[*:2]; X2 = Fc1cc(N*)ccc1Cl

Experiments:
MRSA NRS70 = experiment: Minimal inhibitory concentration, microbroth dilution; assay type: cell-based; settings: Staphylococcus aureus
Outline: (§1)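 MICs were determined by CLSI broth microdilution, using two-fold compound dilutions from a final 200 μM and about 10^5 cfu/mL inoculum. Plates were incubated aerobically at 37 °C overnight. The MIC was read visually as the lowest concentration preventing growth.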

E. faecails = experiment: as above; assay type: cell-based; settings: Enterococcus faecalis
Outline: as §1

S. aureus ATCC 29213 = experiment: as above; assay type: cell-based; settings: Staphylococcus aureus
Outline: as §1

S. aureus USA 300 = experiment: as above; assay type: cell-based; settings: Staphylococcus aureus
Outline: as §1

Plasma stability assay = assay type: in vitro ADME, mouse
Method: The plasma stability property of early drug discovery compounds can influence the in vivo efficacy of the test compounds/drugs. Human and/or mouse plasma degradation is determined using multiple time points to monitor the rate of disappearance of the parent compound during incubation.
Sample preparation for plasma stability was modified from Di et al. (2005) Int. J. Pharm. 297(1-2): 110-119. A set of incubation times of 0, 3, 24, and 48 hour were used. DMSO stock solutions of test compounds were prepared at 10 mM concentration. 1.8 μL of each test compound was each added directly to 1.8 mL of human/mouse plasma to get the final concentration of 10 μM. This compound/matrix was mixed and 70 μL was transferred to 8 time points plates (each in triplicate wells). For the Time 0 plate, 210 μL of cold acetonitrile with internal standard (4 μg/mL warfarin) was added to each well and no incubation needed. For other seven time points' plate, the plate was incubated at 37° C. for required time, followed by quenching of the reaction by adding 210 μL of cold acetonitrile with internal standard (4 μg/ml warfarin) to each well. All of the plates were sealed and mixed well at 600 rpm for 10 min and were centrifuged at 4000 rpm for 20 min. The supernatants (120 μL) were transferred to analytical plates for analysis by LCMS. Conditions for Waters ACQUITY-UPLC-MS-UV system was described separately. The plasma stability was evaluated via the half-life from least-squares fit of the multiple time points based on first-order kinetics.

[1] = plasma stability half-life, mouse plasma, 37° C.
[2] = MIC, read-out: Minimal Inhibitory Concentrations (μM) MRSA NRS70
[3] = MIC, read-out: Minimal Inhibitory Concentrations (μM) E. faecails
[4] = ATCC29213, MIC, read-out: Minimal Inhibitory Concentrations (μM) S. aureus ATCC 29213
[5] = USA300, MIC, read-out: Minimal Inhibitory Concentrations (μM) S. aureus USA 300

| SMILES | MIC (MRSA NRS70; read-out: Minimal Inhibitory Concentrations (μM) MRSA NRS70, MIC) [µM] | MIC (E. faecails; read-out: Minimal Inhibitory Concentrations (μM) E. faecails, MIC) [µM] | MIC (S. aureus ATCC 29213; ATCC29213, read-out: Minimal Inhibitory Concentrations (μM) S. aureus ATCC 29213, MIC) [µM] | MIC (S. aureus USA 300; USA300, read-out: Minimal Inhibitory Concentrations (μM) S. aureus USA 300, MIC) [µM] | Mouse (Plasma stability assay; [1]) [h] | MIC (MRSA NRS70; [2]) [µM] | MIC (E. faecails; [3]) [µM] | MIC (S. aureus ATCC 29213; [4]) [µM] | MIC (S. aureus USA 300; [5]) [µM] | Mouse (Plasma stability assay; mouse, 10 μM) [h] |
| --- | --- | --- | --- | --- | --- | --- | --- | --- | --- | --- |
| Cc1ccc(NC(=O)N[C@@H](Cc2cccc(C)c2)C(=O)N[C@H]2COC(=O)[C@@H]3C[C@H](C)CN3C(=O)[C@H](C)NC(=O)[C@@H]3CCCCN3C(=O)[C@@H]3CCCN3C2=O)cc1 (stereo in doubt) [Compound 43, (S)—N-((2S,6S,8AS,14AS,20S,23AS)-2,6-DIMETHYL-5,8,14,19,23-PENTAOXOOCTADECAHYDRO-1H,5H,14H,19H-PYRIDO[2,1-I]DIPYRROLO[2,1-C:2′,1′-L][1]OXA[4,7,10,13]TETRAAZACYCLOHEXADECIN-20-YL)-3-(M-TOLYL)-2-(3-(P-TOLYL)UREIDO)PROPANAMIDE] | 2.5 (≈ 1.93 µg/mL) | 2.5 (≈ 1.93 µg/mL) | 2.5 (≈ 1.93 µg/mL) | 2.5 (≈ 1.93 µg/mL) | 21.9 | – | – | – | – | – |
| C[C@@H]1C[C@H]2C(=O)OC[C@H](NC(=O)[C@H](Cc3cc(F)cc(F)c3)NC(=O)Nc3ccc(Cl)cc3F)C(=O)N3CCC[C@H]3C(=O)N3CCN(C)C[C@H]3C(=O)N[C@@H](C)C(=O)N2C1 [Compound 34] ({NH(4-Cl-2-F-phenyl)-CO}-[Phe(3,5-F2)]SP[Piperazine(2S-CO,4-Me)]A[Pro(4R-Me)]; ester 2-C) | – | – | – | – | – | 0.078 (≈ 0.0661 µg/mL) | < 0.02 | 0.078 (≈ 0.0661 µg/mL) | 0.156 (≈ 0.132 µg/mL) | 21.18 |
| Cc1cccc(C[C@H](NC(=O)Nc2ccc(Cl)c(F)c2)C(=O)N[C@@H]2C(=O)N3CCC[C@H]3C(=O)N3CCCC[C@H]3C(=O)N[C@@H](C)C(=O)N3C[C@H](C)C[C@H]3C(=O)O[C@H]2C)c1 [Compound 35, (S)-2-(3-(4-CHLORO-3-FLUOROPHENYL)UREIDO)-3-(M-TOLYL)-N-((2R,6S,8AS,14AS,20S,21S,23AS)-2,6,21-TRIMETHYL-5,8,14,19,23-PENTAOXOOCTADECAHYDRO-1H,5H,14H,19H-PYRIDO[2,1-I]DIPYRROLO[2,1-C:2′,1′-L][1]OXA[4,7,10,13]TETRAAZACYCLOHEXADECIN-20-YL)PROPANAMIDE] ({X2-CO}-[Phe(3-Me)][aThr]P[Pip]A[Pro(4R-Me)]; ester 2-C) | – | – | – | – | – | 0.313 (≈ 0.258 µg/mL) | 1.25 (≈ 1.03 µg/mL) | 0.625 (≈ 0.515 µg/mL) | 0.625 (≈ 0.515 µg/mL) | >50 |
| Cc1cccc(C[C@H](NC(=O)Nc2ccc(Cl)cc2F)C(=O)N[C@@H]2C(=O)N3C[C@H](OC(=O)CCN(C)C)C[C@H]3C(=O)N3CCCC[C@H]3C(=O)N[C@@H](C)C(=O)N3C[C@H](C)C[C@H]3C(=O)O[C@H]2C)c1 [Compound 46, (2R,6S,8AS,14AS,16R,20S,21S,23AS)-20-((S)-2-(3-(4-CHLORO-2-FLUOROPHENYL)UREIDO)-3-(M-TOLYL)PROPANAMIDO)-2,6,21-TRIMETHYL-5,8,14,19,23-PENTAOXOOCTADECAHYDRO-1H,5H,14H,19H-PYRIDO[2,1-I]DIPYRROLO[2,1-C:2′,1′-L][1]OXA[4,7,10,13]TETRAAZACYCLOHEXADECIN-16-YL 3-(DIMETHYLAMINO)PROPANOATE] ({NH(4-Cl-2-F-phenyl)-CO}-[Phe(3-Me)][aThr][Hyp](Propanoyl(3-NMe2))[Pip]A[Pro(4R-Me)]; ester 2-C) | – | – | – | – | – | 0.313 (≈ 0.294 µg/mL) | 0.156 (≈ 0.147 µg/mL) | 0.313 (≈ 0.294 µg/mL) | 0.313 (≈ 0.294 µg/mL) | 0.49 |
| Cc1ccc(NC(=O)N[C@@H](Cc2cccc(C)c2)C(=O)N[C@H]2COC(=O)[C@@H]3CCCN3C(=O)[C@H](C)NC(=O)[C@@H]3CCCCN3C(=O)[C@@H]3C[C@@H](O)CN3C2=O)cc1 [Compound 49, (S)—N-((6S,8AS,14AS,16R,20S,23AS)-16-HYDROXY-6-METHYL-5,8,14,19,23-PENTAOXOOCTADECAHYDRO-1H,5H,14H,19H-PYRIDO[2,1-I]DIPYRROLO[2,1-C:2′,1′-L][1]OXA[4,7,10,13]TETRAAZACYCLOHEXADECIN-20-YL)-3-(M-TOLYL)-2-(3-(P-TOLYL)UREIDO)PROPANAMIDE] | – | – | – | – | 22.75 | – | – | – | – | – |
